One data set has as its system MCF7 (breast cancer). In words: Anticancer activity, inhibition of cell proliferation, MCF7 (breast). Type of data set: cell-based. As to conditions: Homo sapiens. The method, then: (§1) Compounds SB-T-101131, SB-T-101133, SB-T-101134, SB-T-10114, SB-T-101141, SB-T-101142, SB-T-101143, SB-T-101144, SB-T-101146, SB-T-101151 and SB-T-101161 were prepared according to the protocols described in Examples 59 and 60 above. These compounds were evaluated for cancer activity against human cancer cell lines of A121 (ovarian cancer), A549 (non-small cell lung cancer), HT-29 (colon cancer), MCF7 (breast cancer), and MCF7-R (adriamycin resistant breast cancer). Table 1 below illustrates the activity of these compounds as IC50 values in a nM concentration.
(§2) […] ACTIVITY OF NEW TAXANES (IC50 nM).
(§3) ^a IC50 represents the concentration that inhibits 50% of cell
(§4) proliferation. ^b MCF7R = mammary carcinoma cells 180 fold resistant
(§5) The cytotoxicities of the new taxanes shown in FIG. 1 hereto and listed in Table 1 were evaluated in vitro against human cancer cell lines according to methods more particularly described in Ojima, I., et al., "Structure--Activity Relationships of New Taxoids Derived from 14β-Hydroxy-10-Deacetyl/Baccatin III," Journal of Medicinal Chemistry, 37, 1408-1410 (1994) and Ojima, I., et al., "Synthesis and Biological Activity of 14-hydroxydocetaxel," Bioorganic and Medicinal Chemistry Letters, 4, 1571-1576 (1994) the contents of which are incorporated herein by reference as if set forth in full.

Data set [1] relates to A549 (non-small cell lung cancer). In words: Anticancer activity, inhibition of cell proliferation, A549 (NSCLC). Type of data set: cell-based. The conditions noted are these: Homo sapiens. As to the method:
as §1, §2, §3, §4, §5

The subject of a further data set is HT-29 (colon cancer). In words: Anticancer activity, inhibition of cell proliferation, HT-29 (colon). The conditions noted are these: Homo sapiens. Type of data set: cell-based. The method, then:
as §1, §2, §3, §4, §5

Data set [2] concerns MCF7-R (adriamycin resistant breast cancer). In words: Anticancer activity, inhibition of cell proliferation, MCF7-R (adriamycin resistant breast). Type of data set: cell-based. As to conditions: Homo sapiens, MCF7R, read-out: IC50, MCF7-R. The method, then:
Compounds SB-T-101131, SB-T-101133, SB-T-101134, SB-T-10114, SB-T-101141, SB-T-101142, SB-T-101143, SB-T-101144, SB-T-101146, SB-T-101151 and SB-T-101161 were prepared according to the protocols described in Examples 59 and 60 above. These compounds were evaluated for cancer activity against human cancer cell lines of A121 (ovarian cancer), A549 (non-small cell lung cancer), HT-29 (colon cancer), MCF7 (breast cancer), and MCF7-R (adriamycin resistant breast cancer).
as §3, §4, §5

The subject of a further data set is A121 (ovarian cancer). Put plainly: Anticancer activity, inhibition of cell proliferation, A121 (ovarian). As to conditions: Homo sapiens. Type of data set: cell-based. The method, then: as §1, §2, §3, §4, §5
The conditions of data set [3]: aqueous media, cited from earlier work.
The conditions of data set [4]: compared with Taxol; listed as Taxotere; cited from earlier work.
A further data set deals with different cancers. As to conditions: background statement; cited from earlier work.
The conditions of data set [5]: clinical trials; cited from earlier work.
[6] abbreviates: concentration that inhibits 50% of cell proliferation, MCF7 (breast), read-out: IC50, MCF7 (breast).
Setting [7] is: concentration that inhibits 50% of cell proliferation, A549 (NSCLC), read-out: IC50, A549 (NSCLC).
Where [8] appears, read: concentration that inhibits 50% of cell proliferation, HT-29 (colon), read-out: IC50, HT-29 (colon).
Where [9] appears, read: concentration that inhibits 50% of cell proliferation, mammary carcinoma cells 180 fold resistant to adriamycin.
[10] abbreviates: concentration that inhibits 50% of cell proliferation, A121 (ovarian), read-out: IC50, A121 (ovarian).

Entries after “also recorded” stand apart in the source; their conditions may differ. Where two headings read alike, the source gives them in different places.

As for `CC(=O)O[C@H]1C(=O)[C@@]2(C)[C@H]([C@H](OC(=O)c3ccccc3)[C@]34OC(=O)O[C@H]3[C@H](OC(=O)[C@H](O)[C@H](CC(C)C)NC(=O)OC(C)(C)C)C(C)=C1C4(C)C)[C@]1(OC(C)=O)CO[C@@H]1C[C@@H]2O` [SB-T-101131], the IC50 in the data set with MCF7 (breast cancer) (setting [6]) amounted to 1.1 nM; in data set [1] (setting [7]), 0.7 nM; with HT-29 (colon cancer) (setting [8]) it was 1.5 nM; in [2] (setting [9]) it was 36 nM; with A121 (ovarian cancer) (setting [10]), 1.2 nM.
For `CC(=O)O[C@@]12CO[C@@H]1C[C@H](O)[C@@]1(C)C(=O)[C@H](O)C3=C(C)[C@@H](O)[C@H](O)[C@@](O)([C@@H](OC(=O)c4ccccc4)[C@H]21)C3(C)C` [14-OH-DAB, 14-Hydroxy-10-deacetylbaccatin III], in [3], the water solubility entry is given as “much higher water solubility than the usual 10-deacetylbaccatin III”.
Regarding `CC(=O)OC12COC1CC(O)C1(C)C(=O)C(OC(=O)C3CC3)C3=C(C)C(OC(=O)C(O)C(CC(C)C)NC(=O)OC(C)(C)C)C4OC(=O)OC4(C(OC(=O)c4ccccc4)C21)C3(C)C` (stereo not drawn) [SB-T-101133], the half-maximal inhibitory concentration (IC50) in the data set on MCF7 (breast cancer) (setting [6]) is 0.7 nM; in data set [1] (setting [7]), 1.2 nM; in the data set with HT-29 (colon cancer) (setting [8]) it was 3.3 nM; in data set [2] (setting [9]), 22 nM; in the data set with A121 (ovarian cancer) (setting [10]), 1.1 nM.
Consider `CC(=O)O[C@@]12CO[C@@H]1C[C@H](O)[C@@]1(C)C(=O)[C@H](O)C3=C(C)[C@@H](OC(=O)[C@H](O)[C@@H](NC(=O)OC(C)(C)C)c4ccccc4)C[C@@](O)([C@@H](OC(=O)c4ccccc4)[C@H]21)C3(C)C` [Docetaxel], for which, in data set [3], the water solubility entry is listed as “somewhat improved water solubility”. Besides, the IC50 in the data set on MCF7 (breast cancer) (setting [6]) was 1 nM; in data set [1] (setting [7]), 1 nM; in the data set on HT-29 (colon cancer) (setting [8]) it was 1.2 nM; in the data set on A121 (ovarian cancer) (setting [10]), 1.2 nM. The “bioavailability / pharmacological properties” value in data set [4] is on record as “better pharmacological properties than Taxol; also recorded: better bioavailability”. Besides, the “cytotoxicity and antitumor activity” value in the data set on different cancers is “antitumor activity superior to Taxol”. The side effects entry in data set [5] was “mouth sores and a plunge in white blood cell count”.
Regarding `COC(=O)OC1C(=O)C2(C)C(O)CC3OCC3(OC(C)=O)C2C(OC(=O)c2ccccc2)C23OC(=O)OC2C(OC(=O)C(O)C(C=C(C)C)NC(=O)OC(C)(C)C)C(C)=C1C3(C)C` (stereo not drawn) [SB-T-101146], the half-maximal inhibitory concentration (IC50) with MCF7 (breast cancer) (setting [6]) came out at 0.3 nM; in data set [1] (setting [7]) it was 0.5 nM; in the data set on HT-29 (colon cancer) (setting [8]), 0.7 nM; in data set [2] (setting [9]) it was 38 nM; in the data set with A121 (ovarian cancer) (setting [10]) it was 0.6 nM.
Taken in the same sequence, the figures for `CC=CC(NC(=O)OC(C)(C)C)C(O)C(=O)OC1C(C)=C2C(OC(C)=O)C(=O)C3(C)C(O)CC4OCC4(OC(C)=O)C3C(OC(=O)c3ccccc3)C3(OC(=O)OC13)C2(C)C` (stereo not drawn) [SB-T-101151] were 1.6 nM, 0.4 nM, 3 nM, 49 nM and 2.4 nM.
On the same counts, the results for `CC(=O)OC12COC1CC(O)C1(C)C(=O)C(O)C3=C(C)C(OC(=O)C(O)C(C=C(C)C)NC(=O)OC(C)(C)C)C4OC(=O)OC4(C(OC(=O)c4ccccc4)C21)C3(C)C` (stereo not drawn) [SB-T-10114] are 0.5 nM, 0.2 nM, 0.5 nM, 54 nM and 1.7 nM.
For the compound `CC(=O)OC1C(=O)C2(C)C(O)CC3OCC3(OC(C)=O)C2C(OC(=O)c2ccccc2)C23OC(=O)OC2C(OC(=O)C(O)C(C=C(C)C)NC(=O)OC(C)(C)C)C(C)=C1C3(C)C` (stereo not drawn) [SB-T-101141], the IC50 in the data set with MCF7 (breast cancer) (setting [6]) is 3.3 nM; in [1] (setting [7]) it was 1.4 nM; with HT-29 (colon cancer) (setting [8]), 2.4 nM; in data set [2] (setting [9]), 36 nM; with A121 (ovarian cancer) (setting [10]), 1.5 nM.
Regarding `CC(=O)O[C@H]1C(=O)[C@@]2(C)[C@H]([C@H](OC(=O)c3ccccc3)[C@]3(O)C[C@H](OC(=O)[C@H](O)[C@@H](NC(=O)c4ccccc4)c4ccccc4)C(C)=C1C3(C)C)[C@]1(OC(C)=O)CO[C@@H]1C[C@@H]2O` [Paclitaxel, reference compound], the water solubility result in [3] (listed as Taxol) is given as “limited solubility in aqueous media; also recorded: poor water solubility”. For the same compound, the IC50 in the data set on MCF7 (breast cancer) (setting [6]) came out at 1.7 nM; in [1] (setting [7]), 3.6 nM; with HT-29 (colon cancer) (setting [8]) it was 3.2 nM; in data set [2] (setting [9]), 300 nM; with A121 (ovarian cancer) (setting [10]), 6.1 nM. Moreover, the “cytotoxicity and antitumor activity” value in the data set on different cancers was “high cytotoxicity and strong antitumor activity”. Moreover, in data set [5], the side effects result is given as “nerve damage, muscle pain or disturbances in heart rhythm”.
For the compound `CCC(=O)OC1C(=O)C2(C)C(O)CC3OCC3(OC(C)=O)C2C(OC(=O)c2ccccc2)C23OC(=O)OC2C(OC(=O)C(O)C(C=C(C)C)NC(=O)OC(C)(C)C)C(C)=C1C3(C)C` (stereo not drawn) [SB-T-101142], the IC50 in the data set with MCF7 (breast cancer) (setting [6]) was determined as 0.1 nM; in data set [1] (setting [7]), 0.5 nM; in the data set with HT-29 (colon cancer) (setting [8]) it was 0.6 nM; in data set [2] (setting [9]), 21 nM; in the data set on A121 (ovarian cancer) (setting [10]), 0.7 nM.
On the same counts, the results for `CC(=O)OC1C(=O)C2(C)C(O)CC3OCC3(OC(C)=O)C2C(OC(=O)c2ccccc2)C23OC(=O)OC2C(OC(=O)C(O)C(NC(=O)OC(C)(C)C)c2ccco2)C(C)=C1C3(C)C` (stereo not drawn) [SB-T-101161] are 0.5 nM, 0.5 nM, 0.6 nM, 58 nM and 0.4 nM.
As to `CC(=O)OC12COC1CC(O)C1(C)C(=O)C(OC(=O)N(C)C)C3=C(C)C(OC(=O)C(O)C(CC(C)C)NC(=O)OC(C)(C)C)C4OC(=O)OC4(C(OC(=O)c4ccccc4)C21)C3(C)C` (stereo not drawn) [SB-T-101134], the IC50 in the data set on MCF7 (breast cancer) (MCF7, read-out: IC50, MCF7 (breast)) was found to be 0.6 nM; in [1] (A549, read-out: IC50, A549 (NSCLC)), 0.6 nM; in the data set with HT-29 (colon cancer) (HT-29, read-out: IC50, HT-29 (colon)), 1.3 nM; in data set [2] it was 22 nM; in the data set on A121 (ovarian cancer) (A121, read-out: IC50, A121 (ovarian)) it was 0.6 nM.
In the case of `CC(=O)OC12COC1CC(O)C1(C)C(=O)C(OC(=O)N(C)C)C3=C(C)C(OC(=O)C(O)C(C=C(C)C)NC(=O)OC(C)(C)C)C4OC(=O)OC4(C(OC(=O)c4ccccc4)C21)C3(C)C` (stereo not drawn) [SB-T-101144], the IC50 was 0.2 nM in the data set on MCF7 (breast cancer) (setting [6]); 0.6 nM in [1] (setting [7]); 1.2 nM in the data set on HT-29 (colon cancer) (setting [8]); 22 nM in data set [2] (setting [9]); 0.7 nM in the data set on A121 (ovarian cancer) (setting [10]).
On to `CC(=O)OC12COC1CC(O)C1(C)C(=O)C(OC(=O)C3CC3)C3=C(C)C(OC(=O)C(O)C(C=C(C)C)NC(=O)OC(C)(C)C)C4OC(=O)OC4(C(OC(=O)c4ccccc4)C21)C3(C)C` (stereo not drawn) [SB-T-101143], for which the half-maximal inhibitory concentration (IC50) in the data set with MCF7 (breast cancer) (setting [6]) was determined as 0.2 nM; in [1] (setting [7]) it was 0.5 nM; in the data set with HT-29 (colon cancer) (setting [8]), 1 nM; in [2] (setting [9]), 24 nM; in the data set with A121 (ovarian cancer) (setting [10]), 0.5 nM.

The values above are taken from patent US5705508A, “Anti-tumor compounds, pharmaceutical compositions, methods for preparation thereof and for treatment” (priority 1995, dated 1998).
